Values after ≈ are worked out from the molar mass of the structure shown.
Key:
Pediococcus pentosaceus = assay: agar dilution MIC, lactic acid bacteria; format: cell-based; conditions: Pediococcus pentosaceus (mean of 2), brain-heart infusion agar
[1] = system: Leuconostoc pseudomesenteroides; assay: agar dilution MIC, lactic acid bacteria; format: cell-based; conditions: brain-heart infusion agar
Streptococcus pyogenes = assay: mouse protection, experimentally-induced infection; format: in vivo; conditions: mice infected with Streptococcus pyogenes, two doses
Lactobacillus confusus = assay: agar dilution MIC, lactic acid bacteria; format: cell-based; conditions: Lactobacillus confusus, brain-heart infusion agar
[2] = system: vancomycin-resistant enterococci; assay: broth micro-dilution, mean geometric MIC; format: cell-based, Enterococcus faecium and Enterococcus faecalis; conditions: enterococci, 24-hour incubation
[3] = system: vancomycin-susceptible enterococci; assay: broth micro-dilution, mean geometric MIC; format: cell-based, Enterococcus faecium and Enterococcus faecalis; conditions: enterococci, 24-hour incubation
Pediococcus acidilacti = assay: agar dilution MIC, lactic acid bacteria; format: cell-based; conditions: Pediococcus acidilacti (mean of 10), brain-heart infusion agar
Streptococcus pneumoniae = assay: mouse protection, experimentally-induced infection; format: in vivo; conditions: mice infected with Streptococcus pneumoniae, two doses
[4] = system: Leuconostoc mesenteroides; assay: agar dilution MIC, lactic acid bacteria; format: cell-based; conditions: Leuconostoc mesenteroides (mean of 4), brain-heart infusion agar
Leuconostoc lactis = assay: agar dilution MIC, lactic acid bacteria; format: cell-based; conditions: Leuconostoc lactis (mean of 2), brain-heart infusion agar
Leuconostoc citreum = assay: agar dilution MIC, lactic acid bacteria; format: cell-based; conditions: brain-heart infusion agar
Stapylococcus aureus = assay: mouse protection, experimentally-induced infection; format: in vivo; conditions: mice infected with Stapylococcus aureus, two doses
[5] = system: Enterococcus gallinarum 245; assay: broth micro-dilution MIC; format: cell-based; conditions: Enterococcus gallinarum 245
Description: (§1) The formula I compounds have in vitro and in vivo activity against Gram-positive pathogenic bacteria. The MIC's were determined using a standard broth micro-dilution assay.

Entercoccus faecium 2041 = assay: broth micro-dilution MIC; format: cell-based; conditions: Entercoccus faecium 2041
Description: as §1

[6] = system: Staphylococcus haemolyticus 415; assay: broth micro-dilution MIC; format: cell-based
Description: as §1

Escherichia coli EC14 = assay: broth micro-dilution MIC; format: cell-based
Description: as §1

Entercoccus faecium 180 = assay: broth micro-dilution MIC; format: cell-based; conditions: Entercoccus faecium 180
Description: as §1

[7] = system: Haemophilus influenzae RD; assay: broth micro-dilution MIC; format: cell-based; conditions: Haemophilus influenzae RD
Description: as §1

[8] = system: Staphylococcus haemolyticus 105; assay: broth micro-dilution MIC; format: cell-based
Description: as §1

[9] = system: Streptococcus pneumoniae P1; assay: broth micro-dilution MIC; format: cell-based
Description: as §1

Entercoccus faecium 276 = assay: broth micro-dilution MIC; format: cell-based
Description: (§2) The MIC's were determined using a standard broth micro-dilution assay.

[10] = system: Staphylococcus aureus SA1199; assay: broth micro-dilution MIC; format: cell-based
Description: as §2

[11] = system: Staphylococcus aureus 446; assay: broth micro-dilution MIC; format: cell-based
Description: as §2

[12] = system: Staphylococcus aureus SA1199A; assay: broth micro-dilution MIC; format: cell-based
Description: as §2

[13] = system: Streptococcus pyogenes C203; assay: broth micro-dilution MIC; format: cell-based
Description: as §2

[14] = system: Staphylococcus aureus X778; assay: broth micro-dilution MIC; format: cell-based
Description: as §2

[15] = system: Staphylococcus aureus X400; assay: broth micro-dilution MIC; format: cell-based
Description: as §2

[16] = system: Entercoccus faecium 180-1; assay: broth micro-dilution MIC; format: cell-based
Description: as §2

[17] = system: Staphylococcus aureus SA1199B; format: cell-based
Description: as §2

[18] = system: Staphylococcus aureus S13E; format: cell-based
Description: as §2

MIC (Pediococcus pentosaceus) | MIC [1] | MIC (Lactobacillus confusus) | mean geometric MIC, Vancomycin Resistant Strains [2] | mean geometric MIC, Vancomycin Sensitive Strains [3] | MIC (Pediococcus acidilacti) | MIC [4] | MIC (Leuconostoc lactis) | MIC (Leuconostoc citreum) | Structure (SMILES) | ED50 (Streptococcus pyogenes) | ED50 (Streptococcus pneumoniae) | ED50 (Stapylococcus aureus) | also measured
91 µg/mL (≈ 52.6 µM) | > 128 µg/mL | 64 µg/mL (≈ 37 µM) | 0.84 µg/mL | 0.21 µg/mL | 71 µg/mL (≈ 41.1 µM) | 91 µg/mL (≈ 52.6 µM) | 91 µg/mL (≈ 52.6 µM) | > 128 µg/mL | CNC(CC(C)C)C(=O)NC1C(=O)NC(CC(N)=O)C(=O)NC2C(=O)NC3C(=O)NC(C(=O)NC(C(=O)O)c4cc(O)cc(O)c4-c4cc3ccc4O)C(OC3CC(C)(N)C(O)C(C)O3)c3ccc(c(Cl)c3)Oc3cc2cc(c3OC2OC(CO)C(O)C(O)C2OC2CC(C)(NCc3ccc(SC)cc3)C(O)C(C)O2)Oc2ccc(cc2Cl)C1O (stereo not shown) [Compound 41] | 0.082 mg/kg/2 | 0.087 mg/kg/2 | – | –
64 µg/mL (≈ 36.1 µM) | 128 µg/mL (≈ 72.1 µM) | 64 µg/mL (≈ 36.1 µM) | 0.71 µg/mL | 0.083 µg/mL | 55 µg/mL (≈ 31 µM) | 64 µg/mL (≈ 36.1 µM) | 64 µg/mL (≈ 36.1 µM) | 128 µg/mL (≈ 72.1 µM) | CNC(CC(C)C)C(=O)NC1C(=O)NC(CC(N)=O)C(=O)NC2C(=O)NC3C(=O)NC(C(=O)NC(C(=O)O)c4cc(O)cc(O)c4-c4cc3ccc4O)C(OC3CC(C)(N)C(O)C(C)O3)c3ccc(c(Cl)c3)Oc3cc2cc(c3OC2OC(CO)C(O)C(O)C2OC2CC(C)(NCc3cccc(Oc4ccccc4)c3)C(O)C(C)O2)Oc2ccc(cc2Cl)C1O (stereo not shown) [Compound 49] | 0.045 mg/kg/2 | < 0.031 mg/kg/2 | 0.053 mg/kg/2 | –
64 µg/mL (≈ 36.1 µM) | 128 µg/mL (≈ 72.2 µM) | 64 µg/mL (≈ 36.1 µM) | 0.12 µg/mL | 0.054 µg/mL | 51 µg/mL (≈ 28.8 µM) | 64 µg/mL (≈ 36.1 µM) | 64 µg/mL (≈ 36.1 µM) | 128 µg/mL (≈ 72.2 µM) | CNC(CC(C)C)C(=O)NC1C(=O)NC(CC(N)=O)C(=O)NC2C(=O)NC3C(=O)NC(C(=O)NC(C(=O)O)c4cc(O)cc(O)c4-c4cc3ccc4O)C(OC3CC(C)(N)C(O)C(C)O3)c3ccc(c(Cl)c3)Oc3cc2cc(c3OC2OC(CO)C(O)C(O)C2OC2CC(C)(NCc3ccc(Cc4ccccc4)cc3)C(O)C(C)O2)Oc2ccc(cc2Cl)C1O (stereo not shown) [Compound 50] | 0.047 mg/kg/2 | 0.057 mg/kg/2 | 0.1 mg/kg/2 | –

Structure (SMILES) | MIC (Pediococcus pentosaceus) | MIC [1] | MIC (Lactobacillus confusus) | mean geometric MIC, Vancomycin Resistant Strains [2] | mean geometric MIC, Vancomycin Sensitive Strains [3] | MIC (Pediococcus acidilacti) | MIC [4] | MIC (Leuconostoc lactis) | MIC (Leuconostoc citreum) | ED50 (Streptococcus pyogenes) | ED50 (Streptococcus pneumoniae) | ED50 (Stapylococcus aureus) | also measured
CNC(CC(C)C)C(=O)NC1C(=O)NC(CC(N)=O)C(=O)NC2C(=O)NC3C(=O)NC(C(=O)NC(C(=O)O)c4cc(O)cc(O)c4-c4cc3ccc4O)C(OC3CC(C)(N)C(O)C(C)O3)c3ccc(c(Cl)c3)Oc3cc2cc(c3OC2OC(CO)C(O)C(O)C2OC2CC(C)(NCc3ccc(OC4CCCCC4)cc3)C(O)C(C)O2)Oc2ccc(cc2Cl)C1O (stereo not shown) [Compound 124] | 16 µg/mL (≈ 8.99 µM) | 64 µg/mL (≈ 35.9 µM) | 16 µg/mL (≈ 8.99 µM) | 0.84 µg/mL | 0.047 µg/mL | 20 µg/mL (≈ 11.2 µM) | 16 µg/mL (≈ 8.99 µM) | 16 µg/mL (≈ 8.99 µM) | 64 µg/mL (≈ 35.9 µM) | 0.092 mg/kg/2 | 0.041 mg/kg/2 | – | MIC [5]: 1 µg/mL (≈ 0.562 µM); MIC (Entercoccus faecium 2041): ≤ 0.06 µg/mL; MIC [6]: 1 µg/mL (≈ 0.562 µM); MIC (Escherichia coli EC14): > 64 µg/mL; MIC (Entercoccus faecium 180): ≤ 0.06 µg/mL; MIC [7]: 16 µg/mL (≈ 8.99 µM); MIC [8]: 2 µg/mL (≈ 1.12 µM); MIC [9]: ≤ 0.06 µg/mL; MIC (Entercoccus faecium 276): ≤ 0.06 µg/mL; MIC [10]: 1 µg/mL (≈ 0.562 µM); MIC [11]: 4 µg/mL (≈ 2.25 µM); MIC [12]: ≤ 0.06 µg/mL; MIC [13]: ≤ 0.06 µg/mL; MIC [14]: 0.5 µg/mL (≈ 0.281 µM); MIC [15]: 1 µg/mL (≈ 0.562 µM); MIC [16]: ≤ 0.06 µg/mL; MIC [17]: ≤ 0.06 µg/mL; MIC [18]: ≤ 0.06 µg/mL

Reference: patent US5840684A, “Glycopeptide antibiotic derivatives” (Eli Lilly and Company, priority 1995, dated 1998)
